IC50 data for three compounds are collected here from patent JPH07173127A, “ヒドロキサム酸誘導体およびそれを有効成分とするエラスターゼ阻害剤” (Kuraray Co Ltd, priority 1993, dated 1995).

Molecules are shown by their SMILES.

This experiment addresses T1, human leukocyte-derived elastase [ヒト白血球由来エラスターゼ] (Homo sapiens, UniProt P08246).
T1 construct: ヒト白血球由来エラスターゼはシグマ社; purchased Sigma (USA); host or cells: human leukocytes (natural source, as the printed name says)
T1 sequence (P08246 30-247 limits assumed): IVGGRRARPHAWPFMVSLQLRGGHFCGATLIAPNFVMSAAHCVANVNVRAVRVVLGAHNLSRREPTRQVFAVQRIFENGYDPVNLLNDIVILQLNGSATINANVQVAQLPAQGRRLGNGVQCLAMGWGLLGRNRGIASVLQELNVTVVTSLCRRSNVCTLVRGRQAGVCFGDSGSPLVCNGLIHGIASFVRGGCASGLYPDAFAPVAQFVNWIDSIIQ
Briefly: エラスターゼ阻害試験 (elastase inhibition test, Test Example 1; fluorogenic substrate). The experiment is classed as biochemical. The conditions noted are these: 50% inhibitory concentration of elastase activity; substrate methoxysuccinyl-Ala-Ala-Pro-Val-4-methyl-coumaryl-7-amide; 0.2M Tris-HCl buffer containing 1M NaCl, pH 8.5; 35℃, 5 min incubation; fluorescence 370/460 nm.
Consider `CCOC(=O)C(CCC(C)C)(CCC(C)C)C(=O)NOCc1ccccc1` [実施例1, 2−イソペンチル−5−メチル−2−エトキシカルボニルヘキサノヒドロキサム酸ベンジルエステル], for which the half-maximal inhibitory concentration (IC50) (as a rule, the concentration at which inhibition is half-maximal) is 3000 nM. The result for `CC(C)CCC(CCC(C)C)C(=O)NO` [実施例4, 2−イソペンチル−5−メチルヘキサノヒドロキサム酸] reads 1000 nM; that for `CCOC(=O)C(CCC(C)C)(CCC(C)C)C(=O)NO` [実施例2, 2−イソペンチル−5−メチル−2−エトキシカルボニルヘキサノヒドロキサム酸], 1000 nM.
